According to ChEMBL document CHEMBL1201862, “PubChem BioAssay data set” (2004):
Activity calls are given as the source filed them.

Assays:
Cytochrome P450 3A4 = Cytochrome P450 3A4 (Homo sapiens, UniProt P08684); details: Potency;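 note: confirmatory qHTS run detecting inhibitors and substrates of CYP3A4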
[1] = molecular target: T1, Short transient receptor potential channel 4 (Mus musculus, UniProt Q9QUQ5); assay: mouse TRPC4 channel inhibitors, dose response, cell-based, HEK293 TRPC4/mu-opioid, Fluo-4 calcium (AID 434942); format: functional;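 note: potency of inhibitors blocking the TRPC4 calcium response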
T1 sequence (Q9QUQ5 whole entry): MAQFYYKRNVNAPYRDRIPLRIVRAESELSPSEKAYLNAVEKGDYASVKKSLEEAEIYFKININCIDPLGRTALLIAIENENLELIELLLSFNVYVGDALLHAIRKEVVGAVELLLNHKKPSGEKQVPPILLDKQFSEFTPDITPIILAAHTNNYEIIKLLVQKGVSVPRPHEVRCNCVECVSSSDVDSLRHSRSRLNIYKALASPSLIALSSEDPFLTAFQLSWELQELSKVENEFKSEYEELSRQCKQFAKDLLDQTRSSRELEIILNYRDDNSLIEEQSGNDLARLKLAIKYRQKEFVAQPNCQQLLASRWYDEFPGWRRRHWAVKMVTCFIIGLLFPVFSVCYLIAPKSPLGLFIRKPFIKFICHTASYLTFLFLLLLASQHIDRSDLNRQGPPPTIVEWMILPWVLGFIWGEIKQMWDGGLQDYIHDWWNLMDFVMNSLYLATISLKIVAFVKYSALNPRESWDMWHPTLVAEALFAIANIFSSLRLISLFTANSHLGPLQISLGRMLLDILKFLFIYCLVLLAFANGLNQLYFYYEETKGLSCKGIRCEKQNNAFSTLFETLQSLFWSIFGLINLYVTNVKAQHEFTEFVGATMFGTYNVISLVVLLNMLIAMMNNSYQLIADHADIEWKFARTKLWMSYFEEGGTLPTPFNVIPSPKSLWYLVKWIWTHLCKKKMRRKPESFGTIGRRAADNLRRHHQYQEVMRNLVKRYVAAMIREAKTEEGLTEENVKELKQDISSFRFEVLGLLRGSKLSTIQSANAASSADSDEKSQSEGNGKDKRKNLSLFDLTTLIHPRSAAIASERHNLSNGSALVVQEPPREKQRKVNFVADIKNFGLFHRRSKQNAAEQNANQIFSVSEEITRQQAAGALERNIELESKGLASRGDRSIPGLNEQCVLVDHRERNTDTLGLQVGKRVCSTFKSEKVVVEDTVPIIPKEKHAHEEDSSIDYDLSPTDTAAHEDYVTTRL

[2] = intracellular Trypanosoma cruzi inhibitors in host cells – cell-based, plate reader, cherry-pick samples, set 3, dose response (AID 651818); format: functional;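 note: compounds incubated with infected cells for about four days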
[3] = cytotoxicity toward DRD oncogenic fibroblasts, dose response, cell-based, non-viral oncogenic, luminescence (AID 1934); format: functional; details: Homo sapiens
BJ [4] = assay: cells; format: functional, cell-based, Homo sapiens; details: Homo sapiens, BJ
Cytochrome P450 2C19 = Cytochrome P450 2C19 (Homo sapiens, UniProt P33261); assay: Cytochrome panel assay with activity outcomes. Panel member name: p450-cyp2c19 Compounds with AC50 equal or less than 10 uM are considered active; format: functional; details: read-out: AC50
Sequence of Cytochrome P450 2C19 (P33261 whole entry): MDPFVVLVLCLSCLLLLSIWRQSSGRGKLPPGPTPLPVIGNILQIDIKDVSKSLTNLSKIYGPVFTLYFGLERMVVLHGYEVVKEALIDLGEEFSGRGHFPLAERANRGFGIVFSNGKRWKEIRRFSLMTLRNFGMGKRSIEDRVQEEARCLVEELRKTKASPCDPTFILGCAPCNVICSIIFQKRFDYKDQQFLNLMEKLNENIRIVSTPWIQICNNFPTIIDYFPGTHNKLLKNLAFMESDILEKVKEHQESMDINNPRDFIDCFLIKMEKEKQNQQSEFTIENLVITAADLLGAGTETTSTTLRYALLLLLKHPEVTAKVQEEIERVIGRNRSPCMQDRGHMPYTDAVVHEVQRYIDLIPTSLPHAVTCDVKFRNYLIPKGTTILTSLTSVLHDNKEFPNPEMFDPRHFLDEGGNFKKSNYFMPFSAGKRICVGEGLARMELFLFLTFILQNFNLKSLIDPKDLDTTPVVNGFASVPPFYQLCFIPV

BJ [5] = assay: cytotoxicity toward BJ-TERT fibroblasts, dose response, cell-based, RAS-independent, luminescence (AID 1933); format: functional; details: Homo sapiens
BJ [6] = assay: cytotoxicity toward BJ-TERT-LT-ST fibroblasts, dose response, cell-based, RAS-independent, luminescence (AID 1935); format: functional; details: Homo sapiens;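 note: BJ fibroblasts immortalized with TERT plus LT and ST oncogenes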
[7] = molecular target: T2, DNA repair and recombination protein RAD54-like (Homo sapiens, UniProt Q92698); assay: inhibitors of human RAD54 branch migration, confirmation, biochemical, fluorescence, cherry-picked samples, dose series (AID 651657); format: functional
T2 sequence (Q92698 whole entry): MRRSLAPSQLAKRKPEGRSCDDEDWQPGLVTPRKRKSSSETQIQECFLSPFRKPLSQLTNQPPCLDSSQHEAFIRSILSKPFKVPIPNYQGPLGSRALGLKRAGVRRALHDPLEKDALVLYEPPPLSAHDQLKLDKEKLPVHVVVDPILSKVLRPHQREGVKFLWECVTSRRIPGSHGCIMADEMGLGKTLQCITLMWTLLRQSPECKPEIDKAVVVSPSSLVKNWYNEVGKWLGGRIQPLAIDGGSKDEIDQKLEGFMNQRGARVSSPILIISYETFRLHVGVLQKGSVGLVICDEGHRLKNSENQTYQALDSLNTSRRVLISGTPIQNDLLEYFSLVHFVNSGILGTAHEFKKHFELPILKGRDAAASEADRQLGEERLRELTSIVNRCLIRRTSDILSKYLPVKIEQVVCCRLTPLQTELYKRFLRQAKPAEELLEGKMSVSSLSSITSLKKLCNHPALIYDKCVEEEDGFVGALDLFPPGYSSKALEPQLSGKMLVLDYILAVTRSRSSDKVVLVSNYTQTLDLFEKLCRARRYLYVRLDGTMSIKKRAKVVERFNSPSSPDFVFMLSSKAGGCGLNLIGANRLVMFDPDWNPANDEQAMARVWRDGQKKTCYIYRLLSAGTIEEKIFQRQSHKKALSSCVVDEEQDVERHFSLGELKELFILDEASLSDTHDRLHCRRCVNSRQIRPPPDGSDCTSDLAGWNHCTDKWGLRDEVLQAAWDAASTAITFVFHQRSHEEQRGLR

INS1 = assay: beta cell apoptosis inhibitors, cytokine rescue, dose response, luminescence, retest (AID 449756); format: functional, cell-based; details: Rattus norvegicus;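 note: cell death triggered by IL-1 beta plus TNF-alpha plus IFN-gamma mixture; protective hits raise ATP signal compared with cytokine alone wells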
[8] = inhibitors of SNCA 5'UTR-driven reporter translation, confirmation, H4 neuroglioma cells, luminescence (AID 1988); format: functional, cell-based
[9] = inhibitors of firefly luciferase expression or activity, dose response, H4 neuroglioma cells, luminescence (AID 1990); format: functional, cell-based
[10] = Luminescence Cell-Based Dose Response HTS to Identify Inhibitors of 5'UTR Stem-Loop Driven Prion Protein mRNA Translation in H4 Neuroglioblastoma Cells. [Related pubchem assays: 1827 (Project Summary), 1813 (Primary HTS)]; format: functional

Sequence of Cytochrome P450 3A4 (P08684 whole entry): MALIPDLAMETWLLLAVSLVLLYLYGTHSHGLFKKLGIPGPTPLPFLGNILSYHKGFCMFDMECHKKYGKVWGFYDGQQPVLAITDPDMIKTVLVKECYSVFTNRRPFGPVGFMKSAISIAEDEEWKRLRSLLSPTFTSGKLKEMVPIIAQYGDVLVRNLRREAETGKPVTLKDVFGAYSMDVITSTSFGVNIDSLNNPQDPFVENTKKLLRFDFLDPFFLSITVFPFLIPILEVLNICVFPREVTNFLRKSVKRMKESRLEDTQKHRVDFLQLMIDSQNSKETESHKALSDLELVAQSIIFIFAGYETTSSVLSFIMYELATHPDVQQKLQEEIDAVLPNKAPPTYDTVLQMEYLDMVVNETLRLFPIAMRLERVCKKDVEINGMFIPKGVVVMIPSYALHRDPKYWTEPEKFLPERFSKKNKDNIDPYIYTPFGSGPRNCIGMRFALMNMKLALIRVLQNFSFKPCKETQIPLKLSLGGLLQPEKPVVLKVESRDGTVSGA

CCCCNc1nc(C)nc2c1nc(-c1ccccc1)n2CC1CCN(C)CC1
AC50 (Cytochrome P450 3A4): 15.8 µM (inconclusive)

Cc1cccc(CN2CCCC(C(=O)Nc3ccccc3Oc3cccnc3)C2)c1 (stereo not given)
EC50 [1]: 4.22 µM (active)

C[C@@H]1CN([C@H](C)CO)C(=O)c2cccc(NC(=O)CCCCCC(=O)Nc3ccccc3N)c2O[C@H]1CN(C)Cc1ccc(-c2ccccc2)cc1
AC50 [2]: 2.18 µM (active)

COc1ccc(-c2nc(-c3cccc(C)c3)nc(N3CCN(C)CC3)c2C#N)cc1
EC50 [3]: 14.8 µM (inconclusive)
EC50 (BJ [4]): 23.3 µM (active)
AC50 (Cytochrome P450 2C19): 20 µM (inconclusive)
EC50 (BJ [5]): 16.5 µM (inconclusive)
EC50 (BJ [6]): > 150 µM (not active)

CCN(CC)CCN=C(S)Nc1ccc2nc(N3CCN(CC)CC3)cc(C)c2c1
AC50 [7]: 15.3 µM (active)

CCCc1nc(C(C)(C)O)c(C(=O)OCc2oc(=O)oc2C)n1Cc1ccc(-c2ccccc2-c2nnn[nH]2)cc1 [OLMESARTAN MEDOXOMIL]
AC50 (Cytochrome P450 3A4): 25.1 µM (inconclusive)

Cc1cc(Nc2ccc3c(c2)OCCO3)c2cccc(C)c2n1
AC50 [7]: 13.9 µM (active)

FC(F)(F)c1ccc(CN2C[C@@H]3C(c4ccc(C(F)(F)F)cc4)C4(c5cccnc5)CC3(C4)[C@H]2c2ccccc2)cc1 (stereo not given in full)
AC50 (INS1): 6.2 µM (active)
AC50 (Cytochrome P450 3A4): 31.6 µM (inconclusive)

CCCn1c(-c2ccc(F)cc2)nc2c(NCCCN(CCO)CCO)nc(C)nc21
AC50 (Cytochrome P450 3A4): 15.8 µM (inconclusive)

Cc1ccc(S(=O)(=O)Nc2ccc3c(c2)CC(=O)N([C@H](C)CO)C[C@@H](C)[C@@H](CN(C)S(=O)(=O)c2ccccc2)O3)cc1
AC50 [2]: 2.27 µM (active)

COc1ccc(C(=O)CN2CCN(CCN3C(=O)c4cccc5cccc(c45)C3=O)CC2)cc1
AC50 [7]: 8.03 µM (active)
EC50 [8]: 15.3 µM (active)
EC50 [9]: 13.4 µM (active)
EC50 [10]: > 120 µM (not active)

Cc1ccc(N(CC(=O)NC2CCCC2)C(=O)CNC(=O)c2cccs2)cc1F
EC50 [1]: 5.96 µM (active)
